The values below come from patent US12497515B2, “Fluorogenic pH-sensitive compounds and their methods of use” (LIFE TECHNOLOGIES CORPORATION, priority 2020, dated 2025).

Series [1] has as its system Jurkat cells. Kind of series: Apoptosis control experiments (CYQUANT Direct, PRESTOBLUE HS, CELLEVENT Caspase green). It is filed as cell-based. The note with it: 2 uM overnight. How it is done:
In this study, Jurkat cells were grown in 0.1% DMSO vehicle control or 2 uM camptothecin overnight in normal cell culture conditions then harvested, counted, washed, labeled, and resuspended at matched total cell number at 2×10^6 cells per mL in complete culture medium and dispensed 100 uL (200,000 cells) per well (n=8 per measurement) before adding the indicated reagents for 1 hour. […] The apoptosis indicator CELLEVENT Caspase green (Thermo Fisher Scientific, Waltham, MA) was also added to the two samples matched in total cells per mL along with NUCBLUE Live (Thermo Fisher Scientific, Waltham, MA), and cells plated at 100,000 cells per well for HCA quantification on the […] CX5.

Series [2] is described as follows: pKa of the free compound (pH profile of fluorescence intensity). The format is physicochemical. The note with it: series of pH buffers. How it is done: FIG. 6 provides the pH profile of fluorescence intensity of Compound C at room temperature. Fluorescence was measured using 636 nm ex, 654 nm em, with 5 nm bandpass. Solutions were diluted to 5 uM with a series of pH buffers in triplicate in a 96-well clear-bottom black walled plate. Samples were measured on a Tecan Infinite M100 plate reader via top-read. RFU=relative fluorescence units.
FIG. 7 provides the pH profile of fluorescence intensity of Compound E at room temperature. Fluorescence was measured using 636 nm ex, 654 nm em, with 5 nm bandpass. Solutions were diluted to 5 uM with pH buffers in triplicate in a 96-well clear-bottom black walled plate. Samples were measured on a Tecan Infinite M100 plate reader via top-read. RFU=relative fluorescence units.
Fluorescence was measured using 636 nm excitation wavelength (ex), 654 nm emission wavelength (em), with 5 nm bandpass filter. Solutions were diluted to 5 uM with a series of pH buffers (see Table 3) in triplicate in a 96-well clear-bottom black walled plate. Samples were measured on a Tecan Infinite M100 plate reader via top-read.
Fluorescence was measured using 636 nm ex, 654 nm em, with 5 nm bandpass. Solutions were diluted to 5 uM with pH buffers in triplicate in a 96-well clear-bottom black walled plate. Samples were measured on a Tecan Infinite M100 plate reader via top-read.

Series [3] is described as follows: pH response kinetics (ring opening, absorbance at 637 nm). The note with it: for pH response kinetics: stock in phosphate buffer pH 7.4 mixed with phosphate buffer pH 3.13, room temperature. The format is physicochemical. As for the experimental part: The kinetics of the ring opening of Compound A, Compound C, and Compound H were studied by measuring absorbance changes at 637 nm (absorption maxima of the ring-opening states) with UV-Vis spectroscopy. Stock solutions of the three dyes were prepared in pH 7.4 phosphate buffer with concentration of 1.8 mM. […] Stock solutions (10 μL) containing the dyes (1.8 mM) in phosphate buffer (pH 7.4) were diluted 300 times with phosphate buffer (pH 3.13) to a final concentration of […] at pH 3.13. The absorption changes were recorded at room temperature at 637 nm.

Series [4] has as its system RAW macrophages. Kind of series: Phagocytosis of CD4 opsonized Jurkat cells labeled with compound. The following applies: incubated with RAW macrophages 1-3 hours, 10×. It is filed as cell-based. As for the experimental part:
In this study, Jurkat cells were grown as normal in complete medium then harvested, counted, washed, labeled, and resuspended per product description in complete culture medium before splitting into control and CD4 antibody treated samples. In brief, the cells were resuspended in PBS and labeled with either BSA control or CD4 antibody at 2 ug/mL for one hour at room temperature before washing 2× in PBS and adding to RAW macrophages.

Series [5] concerns Jurkat cells. Kind of series: Toxicity and turn-on response of labeled cells (PRESTOBLUE Cell Health Assay, Cy5 imaging). It is filed as cell-based. How it is done: In this study, healthy Jurkat cells were grown and harvested in normal cell culture conditions, washed, counted, labeled and resuspended per product description in complete culture medium, and incubated overnight before testing for cell health and number with the PRESTOBLUE Cell Health Assay (Thermo Fisher Scientific, Waltham, MA). Cells with Compound C were, in parallel determinations, resuspended in the external reference pH buffer indicated and imaged on an EVOS M7000 for signal in the Cy5 channel from labeled cells at extracellular pH 4.5 (FIG. 42A, in red) and 7.5 (FIG. 42A, Inset). FIG. 42B is a graph showing control (left side) and compound C (right side).

Series [6] has as its system RAW macrophages. The series can be described thus: Efferocytosis of labeled apoptotic Jurkat cells. The note with it: incubated with RAW macrophages 1-3 hours, 4× and 10×. It is filed as cell-based. As for the experimental part:
FIGS. 43-44 show the efferocytosis from apoptotic cells with Compound C. In this study, Jurkat cells were grown in 0.1% DMSO control or 2 uM camptothecin overnight in normal cell culture conditions then harvested, counted, washed, labeled and resuspended per product description in complete culture medium at matched density before adding to RAW macrophages for assays of efferocytosis, or the phagocytosis of apoptotic cells.

`CC[C@@]1(O)C(=O)OCc2c1cc1n(c2=O)Cc2cc3ccccc3nc2-1` [Camptothecin, camptothecin]: in series [1], the “apoptosis, intracellular caspase activity (CELLEVENT Caspase green)” value is “substantial induction of apoptosis”; the “live cell number (CYQUANT Direct)” value is given as “fewer live cells”; the “overall vitality (PRESTOBLUE HS)” value was “decrease in overall vitality”.

By pKa is commonly meant the pH at which an ionisable group is half protonated. A high value points to a group that holds its proton tightly. In series [2], `CC1(C)C=C(CS(=O)(=O)O)c2cc3c(c4c2N1CCC4)Oc1c(cc2c4c1CCCN4C(C)(C)C=C2CS(=O)(=O)O)C31c2c(Cl)ccc(Cl)c2C(=O)N1CCN1CCN(C(=O)CCOCCOCCOCCOCCC(=O)ON2C(=O)CCC2=O)CC1` [Compound A] registered a pKa of 5.2. Besides, the “absorbance as share of the expected maximum value (A=0.93)” value in series [3] (after 3600 seconds (60 minutes) at pH 3.13) is 5%. For the same compound, in series [3] (after 3600 seconds (60 minutes) at pH 3.13, 6.6 μM), the “absorbance at 637 nm” value is reported as 0.05. Further, the pH response kinetics result in series [3] was “slow”.

The compound `CC1(C)C=C(CS(=O)(=O)O)c2cc3c(c4c2N1CCC4)Oc1c(cc2c4c1CCCN4C(C)(C)CC2CS(=O)(=O)O)C31c2c(Cl)ccc(Cl)c2C(=O)N1NC(=O)CCOCCOCCOCCOCCC(=O)Oc1c(F)c(F)cc(F)c1F` (centres unmarked) [Compound B] came in with a pKa in series [2] of 3.7.

In series [2], `CC1(C)C=C(CS(=O)(=O)O)c2cc3c(c4c2N1CCC4)Oc1c(cc2c4c1CCCN4C(C)(C)C=C2CS(=O)(=O)O)C31c2c(Cl)ccc(Cl)c2C(=O)N1OCCOCCOCCOCCC(=O)Oc1c(F)c(F)cc(F)c1F` [Compound C] displayed a pKa of 4.87. Also, the “absorption at 637 nm (A)” value in series [3] (immediately after mixing pH 7.4 stock into pH 3.13 buffer, 6.6 μM, maximum, kept constant) came out at 0.93. In series [3], the pH response kinetics entry was “fast”. Further, the “phagocytosis signal, CD4 antibody treated vs control labeled Jurkat cells” value in series [4] is recorded as “signal preferentially appearing from the CD4 treated samples”. Moreover, the “toxicity to labeled cells vs sham labeled control” value in series [5] (Jurkat cells, overnight, PRESTOBLUE) was “little toxicity”. In addition, the “turn-on response of labeled cells” value in series [5] (extracellular pH 4.5 vs 7.5, Cy5 channel) is given as “large fold turn-on response”. Also, the “efferocytosis signal, camptothecin treated vs control labeled Jurkat cells” value in series [6] was “signal preferentially appearing from the camptothecin treated samples”.

`CC1(C)C=C(CS(=O)(=O)O)c2cc3c(c4c2N1CCC4)Oc1c(cc2c4c1CCCN4C(C)(C)CC2CS(=O)(=O)O)C31c2c(Cl)c(Cl)c(Cl)c(Cl)c2C(=O)N1NC(=O)CCOCCOCCOCCOCCC(=O)Oc1c(F)c(F)cc(F)c1F` (centres unmarked) [Compound D]: the pKa in series [2] was found to be 4.3.

Compound `CC1(C)C=C(CS(=O)(=O)O)c2cc3c(c4c2N1CCC4)Oc1c(cc2c4c1CCCN4C(C)(C)C=C2CS(=O)(=O)O)C31c2c(Cl)c(Cl)c(Cl)c(Cl)c2C(=O)N1OCCOCCOCCOCCC(=O)Oc1c(F)c(F)cc(F)c1F` [Compound E] returned a pKa in series [2] of 4.67.

Compound `CC1(C)C=C(CS(=O)(=O)O)c2cc3c(c4c2N1CCC4)Oc1c(cc2c4c1CCCN4C(C)(C)C=C2CS(=O)(=O)O)C31c2c(Cl)ccc(Cl)c2C(=O)N1OCC(=O)Oc1c(F)c(F)cc(F)c1F` [Compound F] yielded a pKa in series [2] of 5.5.

For the compound `CC(C)(ON1C(=O)c2c(Cl)ccc(Cl)c2C12c1cc3c4c(c1Oc1c2cc2c5c1CCCN5C(C)(C)C=C2CS(=O)(=O)O)CCCN4C(C)(C)C=C3CS(=O)(=O)O)C(=O)Oc1c(F)c(F)cc(F)c1F` [Compound G], in series [2], the pKa was 6.5.

Compound `CC1(C)C=C(CS(=O)(=O)O)c2cc3c(c4c2N1CCC4)Oc1c(cc2c4c1CCCN4C(C)(C)C=C2CS(=O)(=O)O)C31c2c(Cl)ccc(Cl)c2C(=O)N1CCOCCOCCOCCOCCC(=O)Oc1c(F)c(F)cc(F)c1F` [Compound H] came in with a pKa in series [2] of 5.2. In addition, the “absorbance as share of the expected maximum value (A=0.93)” value in series [3] (after 6000 seconds (100 minutes) at pH 3.13) amounted to 5%. Also, the “absorbance at 637 nm” value in series [3] (after 6000 seconds (100 minutes) at pH 3.13, 6.6 μM) was found to be 0.05. Further, the pH response kinetics entry in series [3] is given as “slow”.
